Calls of active or inactive are those of the source. No cut-off for these calls is given here.
Key:
MDA-MB-231 [1] = assay: Induction of pyroptosis in human MDA-MB-231 cells assessed as appearance of large bubbles in cell at 0.5 uM preincubated with compound for 4 hrs followed by light irradiation of 20 mW.cm/2 at 400 to 700nm for 10 mins by confocal fluorescence microscopy analysis; format: functional, cell-based
MDA-MB-231 [2] = assay: Downregulation of PD-L1 expression level in human MDA-MB-231 cells at 0.5 uM preincubated with chloroquine followed by compound addition and measured after 24 hrs under light irradiation of 20 mW.cm/2 at 400 to 700nm for 10 mins by Western blot analysis; format: functional, cell-based
4T1 [3] = assay: Antitumor activity against mouse 4T1 cells implanted in BALB/c mouse model assessed as reduction in tumor growth at 25 mg/kg, iv measured after 14 days under light irradiation of 300 mW.cm/2 at 400 to 700nm measured after 5 mins; format: functional, organism-based; conditions: time 14.0 day
Homo sapiens = organism: Homo sapiens; assay: Binding affinity to PD-L1 (unknown origin) by streptavidin-biotin pull down assay
4T1 [4] = assay: Antitumor activity against mouse 4T1 cells implanted in BALB/c mouse model assessed as reduction in tumor volume at 25 mg/kg, iv measured after 14 days; format: functional, organism-based; conditions: time 14.0 day
4T1 [5] = assay: Downregulation of PD-L1 expression level in mouse 4T1 cells at 0.1 to 0.5 uM incubated for 24 hrs under light irradiation of 20 mW.cm/2 at 400 to 700nm for 10 mins by Western blot analysis; format: functional, cell-based; conditions: dose 0.1-0.5 µM
4T1 [6] = assay: Cytotoxicity against mouse 4T1 cells at 0.01 to 10 uM incubated for 2 hrs under dark condition by CCK-8 method; format: functional, cell-based; conditions: dose 0.01-10 µM
4T1 [7] = assay: Antitumor immunity against mouse 4T1 cells implanted in BALB/c mouse model assessed as fold increase in CD8+ T cells in spleen at 25 mg/kg, iv measured after 14 days under light irradiation of 300 mW.cm/2 at 400 to 700nm measured after 5 mins […]; format: functional; conditions: time 14 day
MDA-MB-231 [8] = assay: Downregulation of PD-L1 expression level in human MDA-MB-231 cells at 0.5 uM preincubated with MG-132 followed by compound addition and measured after 24 hrs under light irradiation of 20 mW.cm/2 at 400 to 700nm for 10 mins by Western blot analysis; format: functional, cell-based
[9] = Toxicity in BALB/c mouse assessed as effect on spleen at 25 mg/kg, iv measured after 14 days by H and E staining based analysis; format: organism-based; conditions: in vivo, 336 h, time 14 day
[10] = Aqueous solubility of the compound by UV-vis absorption analysis; format: physicochemical; conditions: water
4T1 [11] = assay: Antitumor immunity against mouse 4T1 cells implanted in BALB/c mouse model assessed as upregulation of proportion of neutrophils in lymph node at 25 mg/kg, iv measured after 14 days under light irradiation of 300 mW.cm/2 at 400 to 700nm measured after 5 mins by flow cytometry analysis; format: functional, organism-based; conditions: time 14.0 day
[12] = Toxicity in BALB/c mouse assessed as effect on liver at 25 mg/kg, iv measured after 14 days under light irradiation of 300 mW.cm/2 at 400 to 700nm measured after 5 mins; format: organism-based; conditions: in vivo, 336 h, 0.7 µM, time 14 day
4T1 [13] = assay: Induction of cell death in mouse 4T1 cells assessed as increase in red fluorescence at 0.5 uM incubated for 24 hrs followed by light irradiation of 20 mW.cm/2 at 400 to 700nm for 10 mins by Calcein-AM/PI staining based analysis; format: functional
[14] = Toxicity in BALB/c mouse assessed as effect on tumor at 25 mg/kg, iv measured after 14 days under light irradiation of 300 mW.cm/2 at 400 to 700nm measured after 5 mins by H and E staining based analysis; format: organism-based; conditions: in vivo, 336 h, 0.7 µM, time 14 day
MDA-MB-231 [15] = assay: Induction of pyroptosis in human MDA-MB-231 cells assessed as formation of bubble-like protrusion on cell surface at 0.25 uM preincubated with compound for 12 hrs followed by light irradiation of 20 mW.cm/2 at 400 to 700nm for 10 mins by confocal fluorescence microscopy analysis; format: functional, cell-based
[16] = Induction of ROS generation under LED light irradiation assessed as increase in superoxide anion radical level by measuring increase in DHR123 fluorescence at 5 uM measured for 7 mins by fluorescence based analysis; format: functional
MDA-MB-231 [17] = assay: Cytotoxicity against human MDA-MB-231 cells at 0.01 to 10 uM incubated for 2 hrs under dark condition by CCK-8 method; format: functional, cell-based; conditions: dose 0.01-10 µM
[18] = Toxicity in BALB/c mouse assessed as effect on lung at 25 mg/kg, iv measured after 14 days by H and E staining based analysis; format: organism-based; conditions: in vivo, 336 h, time 14 day
MDA-MB-231 [19] = assay: Photocytotoxicity in human MDA-MB-231 cells assessed as reduction in 3D multicellular spheroids diameter at 0.5 to 1 uM incubated for 24 hrs under light irradiation of 50 mW.cm/2 at 400 to 700nm measured after 10 mins in normoxia condition; format: functional, cell-based; conditions: dose 0.5-1 µM
MDA-MB-231 [20] = assay: Induction of pyroptosis in human MDA-MB-231 cells assessed as effect on caspase-1 expression level at 0.1 to 0.5 uM preincubated with compound for 12 hrs followed by light irradiation of 20 mW.cm/2 at 400 to 700nm for 10 mins by Western blot analysis; format: functional, cell-based; conditions: dose 0.1-0.5 µM
MDA-MB-231 [21] = assay: Induction of pyroptosis in human MDA-MB-231 cells assessed as increase in LDH release at 0.1 to 0.5 uM incubated for 12 hrs under light irradiation of 20 mW.cm/2 at 400 to 700nm for 10 mins; format: functional, cell-based; conditions: dose 0.1-0.5 µM
[22] = Drug accumulation in BALB/c mouse tumor implanted with mouse 4T1 cells assessed as increase in fluorescence intensity at 25 mg/kg, iv measured after 12 hrs by imaging based analysis; format: ADME, organism-based, Neoplasm; conditions: in vivo
4T1 [23] = assay: Induction of pyroptosis in mouse 4T1 cells assessed as cell swelling at 0.5 uM preincubated with compound for 4 hrs followed by light irradiation of 20 mW.cm/2 at 400 to 700nm for 10 mins by confocal fluorescence microscopy analysis; format: functional, cell-based
4T1 [24] = assay: Antitumor immunity against mouse 4T1 cells implanted in BALB/c mouse model assessed as increase in IL-6 secretion in tumors at 25 mg/kg, iv measured after 14 days under light irradiation of 300 mW.cm/2 at 400 to 700nm measured after 5 mins by ELISA method; format: functional, organism-based; conditions: time 14.0 day
[25] = Toxicity in BALB/c mouse assessed as effect on heart at 25 mg/kg, iv measured after 14 days under light irradiation of 300 mW.cm/2 at 400 to 700nm measured after 5 mins by H and E staining based analysis; format: organism-based; conditions: in vivo, 336 h, 0.7 µM, time 14 day
MDA-MB-231 [26] = assay: Photocytotoxicity in human MDA-MB-231 cells assessed as reduction in 3D multicellular spheroids diameter at 0.5 to 1 uM incubated for 24 hrs under light irradiation of 50 mW.cm/2 at 400 to 700nm measured after 10 mins in hypoxia condition; format: functional, cell-based; conditions: dose 0.5-1 µM
[27] = Toxicity in BALB/c mouse assessed as effect on WBC at 25 mg/kg, iv measured after 14 days; format: organism-based; conditions: in vivo, 336 h, time 14 day
MDA-MB-231 [28] = assay: Induction of pyroptosis in human MDA-MB-231 cells assessed as upregulation of GSDME-N expression level at 0.1 to 0.5 uM incubated with compound for 12 hrs under dark condition by Western blot analysis; format: functional, cell-based; conditions: dose 0.1-0.5 µM

O=c1cc2sc3cc(N4CCNCC4)ccc3nc-2c2ccccc12
Activity (MDA-MB-231 [1]): Active
Activity (MDA-MB-231 [2]): inactive
Activity (4T1 [3]): Active
Activity (Homo sapiens): Not active; Compound Rarely Binds To Pd-L1
Activity (4T1 [4]): Active
Activity (4T1 [5]): Active
Activity (4T1 [6]): Active; Compound Showed Low Toxicity
fold change (FC) (4T1 [7]): 6.3
Activity (MDA-MB-231 [8]): inactive
Activity [9]: Non-toxic
solubility [10]: > 10 mM
Activity (4T1 [11]): Active
Activity [12]: Non-toxic
Activity (4T1 [13]): Active
Activity [14]: Toxic
Activity (MDA-MB-231 [15]): Active
Activity [16]: Active
Activity (MDA-MB-231 [17]): Active; Compound Showed Low Toxicity
Activity [18]: Non-toxic
Activity (MDA-MB-231 [19]): Active
Activity (MDA-MB-231 [20]): inactive
Activity (MDA-MB-231 [21]): Active
Drug uptake [22]: Active
Activity (4T1 [23]): Active
Activity (4T1 [24]): Active
Activity [25]: Non-toxic
Activity (MDA-MB-231 [26]): Active
Activity [27]: Non-toxic
Activity (MDA-MB-231 [28]): Active; Compound Showed Negligible Changes
